Test results from US5830872A, “Esters of D-mannose or of xylitol and their use as medicaments” (L'Associazione di volontariato "Pro La Fondazione Futuro …, priority 1994, dated 1998).

What was measured:
[1] = system: HL 60 cells; assay: Antiproliferative test: inhibition of growth of HL 60 cells; type: cell-based; conditions: concentrations 0.5 to 1 mM
Description: The tests were carried out on stabilized cell lines (HL 60 and others) in the absence of growth factors. The concentrations of butyric derivatives vary from 0.5 to 1 mM.
The following parameters were evaluated by "FASC Scan" scanning and flow cytometry:
incorporation of tritiated thymidine (exploration of cell metabolism);
incorporation of propylium iodide (determination of the phase of the cell cycle);

[2] = system: γ chain of the haemoglobin; assay: Level of γ chain of the haemoglobin in erythroleukaemic cell lines; type: cell-based; conditions: 0.70 mM (α-MAM-A), 0.35 mM (Xyli-C); for level of γ chain of the haemoglobin in the presence of A.P.A.A.P.: 10% without ester; for increase in level of γ chain of the haemoglobin: erythroleukaemic cell lines, normal human serum
Description: The following parameters were evaluated: level of γ chain of the haemoglobin (immunological quantitative determination by double antigen antibody reaction and by immunocytochemical quantitative determination in the presence of alkaline phosphatase-anti-alkaline phosphatase A.P.A.A.P.);

[3] = cited from earlier work
[4] = system: foetal haemoglobin, in particular the γ chain; conditions: acids and their salts, cited from earlier work; for synthesis of foetal haemoglobin: in particular γ chain
[5] = cited from earlier work; remark: listed apart in the source
[6] = 95 hours, cited from earlier work

Q: What does the source list for `CCCC(=O)O[C@H]1O[C@H]([C@H](O)CO)[C@@H]2OC(C)(C)O[C@H]12` [α-MAM-A, O-n-butanoyl-2,3-O-isopropylidene-α-D-mannoside]?
A: % of inhibition of growth HL 60 ([1]; 2 d.): 40%; % of inhibition of growth HL 60 ([1]; 5 d.): 80%; level of γ chain of the haemoglobin in the presence of A.P.A.A.P. [2]: 22%; increase in level of γ chain of the haemoglobin [2]: increase the level of γ chain of the haemoglobin

Q: For `CCCC(=O)O` [n-butyric acid], which “in vivo plasma lifetime” value [3] is on record?
A: very short in vivo plasma lifetime

Q: What about the “γ gene of human foetal haemoglobin” value [4] of the same molecule?
A: induce the γ gene of human foetal haemoglobin

Q: What about the “synthesis of foetal haemoglobin” value [4] of the same molecule?
A: stimulate the synthesis of foetal haemoglobin

Q: Which results are given for `CCCC(=O)O[C@@H]1[C@H]2OC(C)(C)O[C@H]2O[C@@H]1[C@H](O)CO` [3-O-n-butanoyl-1,2-O-isopropylidene-α-D-glucofuranose]?
A: internal transesterification in solution [5]: undergoes an internal transesterification; 5-O-n-butanoyl isomer in the non-deesterified fraction ([6]; pH=8.1, 25° C.): 4%; 6-O-n-butanoyl isomer in the non-deesterified fraction ([6]; pH=8.1, 25° C.): 90%; initial ester in the non-deesterified fraction ([6]; pH=8.1, 25° C.): 6%; deesterification ([6]; same conditions (pH=8.1, 25° C.), Goueth et al.): 20%

Q: With `CCCC(=O)OCC1OC(C)(C)OC1C(O)CO` (stereo not drawn) [MAXyli-C, 1-O-n-butanoyl-2,3-O-isopropylidenexylitol] as the molecule, how does the “% of inhibition of growth HL 60” value ([1]; 3 d.) read?
A: 80%

Q: And the “% of inhibition of growth HL 60” value ([1]; 4 d.)?
A: 90%

Q: What does the source list for `CCCC(=O)OC[C@H](O)[C@@H](O)[C@H](O)CO` [Xyli-C, 1-O-n-butanoylxylitol]?
A: % of inhibition of growth HL 60 ([1]; 5 d.): 70%; level of γ chain of the haemoglobin in the presence of A.P.A.A.P. [2]: 17%; increase in level of γ chain of the haemoglobin [2]: increase the level of γ chain of the haemoglobin

Q: With `O=C(O)CCCc1ccccc1` [4-phenylbutyric acid] as the molecule, how does the “γ gene of human foetal haemoglobin” value [4] read?
A: induce the γ gene of human foetal haemoglobin

Q: And the “synthesis of foetal haemoglobin” value [4]?
A: stimulate the synthesis of foetal haemoglobin

Q: With `O=C(O)Cc1ccccc1` [phenylacetic acid] as the molecule, how does the “γ gene of human foetal haemoglobin” value [4] read?
A: induce the γ gene of human foetal haemoglobin

Q: And the “synthesis of foetal haemoglobin” value [4]?
A: stimulate the synthesis of foetal haemoglobin
